Tests used:
PBP4^TO [1] = target: T1, PBP4^TO (Candidatus Thiosymbion oneisti, UniProt Z9LUN3GEC2); test: Bocillin-FL labelling, SDS-PAGE fluorescence; type: binding; design: His-tagged, expressed in cytoplasm of E. coli SF100 (plasmid pJW06, pET302 vector named); gene 1245 nt, 414 aa; dimers and higher oligomers on native PAGE; conditions: pH 7.5, 50 mM NaCl, 10 mM MgCl2, 28 °C, 30 min; covalent
T1 sequence (Z9LUN3GEC2 31-414 limits assumed): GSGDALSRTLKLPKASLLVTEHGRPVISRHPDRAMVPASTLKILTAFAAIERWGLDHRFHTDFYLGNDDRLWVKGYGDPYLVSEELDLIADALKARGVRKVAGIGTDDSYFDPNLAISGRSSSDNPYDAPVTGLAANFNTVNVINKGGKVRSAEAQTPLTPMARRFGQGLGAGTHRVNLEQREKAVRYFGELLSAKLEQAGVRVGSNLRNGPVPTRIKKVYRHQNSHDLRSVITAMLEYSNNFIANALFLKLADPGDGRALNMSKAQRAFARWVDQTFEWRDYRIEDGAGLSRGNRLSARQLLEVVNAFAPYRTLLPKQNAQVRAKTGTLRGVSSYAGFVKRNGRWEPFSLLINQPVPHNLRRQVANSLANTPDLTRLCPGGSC

PBP4^TO [2] = target: T1, PBP4^TO; test: Bocillin-FL competition, SDS-PAGE fluorescence; conditions: pH 7.5, 50 mM NaCl, 10 mM MgCl2, 28 °C, 20 min before 15 μg/mL Bocillin-FL (30 min)

For `CC1=CC(C)=[N+]2C1=Cc1ccc(CCC(=O)Nc3ccc(OCC(=O)N[C@@H]4C(=O)N5[C@@H]4SC(C)(C)[C@@H]5C(=O)O)cc3)n1[B-]2(F)F` [Bocillin-FL], the “Bocillin-FL labelling, SDS-PAGE fluorescence” value (PBP4^TO [1]) was “Purified PBP4^TO protein was detectable after Bocillin-FL labeling”.
With `NC(=O)c1cc[n+](CC2=C(C(=O)[O-])N3C(=O)[C@@H](NC(=O)[C@@H](c4ccccc4)S(=O)(=O)O)[C@H]3SC2)cc1` [cefsulodin] the “Bocillin-FL competition, SDS-PAGE fluorescence” value (shortened to “Bocillin-FL competition”) (PBP4^TO [2]; weak binder) was “cefsulodin, PBP2 inhibitor mecillinam, PBP4 inhibitor cephalexin”.
`CC1(C)S[C@@H]2[C@H](N=CN3CCCCCC3)C(=O)N2[C@H]1C(=O)O` [mecillinam] was tested, and the “Bocillin-FL competition” value (PBP4^TO [2]; weak binder) was “PBP2 inhibitor mecillinam, PBP4 inhibitor cephalexin”.
With `C[C@@H](O)[C@H]1C(=O)N2C(C(=O)O)=C(S[C@@H]3CN[C@H](C(=O)N(C)C)C3)[C@H](C)[C@H]12` [meropenem] the “Bocillin-FL competition” value (PBP4^TO [2]; possible allosteric second site at high concentration) was “does present some affinity for PBP4^TO, whereas Bocillin-FL intensity is enhanced with high-concentration treatment”.
In the case of `CC1(C)S[C@@H]2[C@H](NC(=O)Cc3ccccc3)C(=O)N2[C@H]1C(=O)O` [penicillin G], the “Bocillin-FL competition” value (PBP4^TO [2]) is reported as “penicillin G had a similar affinity for PBP4^TO as for PBP4^EC”.
